Measurements as given in patent US20240424148A1, “IN-VIVO PROXIMITY-BASED LABELING SYSTEMS AND APPLICATIONS THEREOF” (THE TRUSTEES OF PRINCETON UNIVERSITY, priority 2021, published 2024).

Assay: Redox potentials (electrochemistry)
Assay type: physicochemical
Excerpt: This reduced species is poised to undergo single electron transfer (SET) to the aryl azide, 1 (Ep/2=−0.61 V vs Ag/AgCl), thereby regenerating the catalyst (3) (FIG. 15).
Furthermore, electrochemical reduction of the Sn-chlorin e6 catalyst generated a species with significant spectral overlap with the transient-absorption signal of the photoexcited catalyst in the presence of NADH, supporting the generation of the reduced ground state catalyst.

[N-]=[N+]=Nc1ccc(C(=O)O)cc1 [compound 1, 4-azidobenzoic acid] gave an Ep/2 of −0.61 V vs Ag/AgCl.
